“And” between values parts separate entries of the source, which are not always exact repeats. Equal values may be shown once.
What was measured:
[1] = tested on: peripheral blood T cells (CD3), B cells (CD20), monocytes (CD14), lymphocytes; assay: Leukocyte repopulation in peripheral blood of renal allograft patients; type: in vivo, human
Procedure: (§1) Patients and Protocol Therapy. Primary renal allograft patients received a non-HLA-identical kidney from either cadaveric or living donors. Subjects were 18-60 years of age and had between 1-6 MHC antigen mismatches with the kidney allograft. Kidney transplant recipients were given CAMPATH-1H (Alemtuzumab, ILEX Oncology, Inc.) at day −1 and day 0 of transplant (40 mg total dose), followed by long-term treatment with rapamycin at levels averaging 9 ng/ml. […] Another […] patients were enrolled in the control arm. The latter group received anti-CD25 (Basiliximab, Novartis, East Hanover, N.J.) induction therapy, along with conventional long-term immunosuppressants (CsA, steroids, and MMF). All patients gave written informed consent to participate in the study. The protocol was given approval by the Institutional Review Board at the University of Wisconsin-Madison.
In renal allograft recipients treated with CAMPATH-1H, immunodepletion is profound, with a 2-3 log reduction in peripheral lymphocytes at the outset (See, e.g., Brett et al., Immunology 1996, 88,13). […] Although monocytes and B cells recovered to baseline numbers by 3 and 12-months, respectively, T cell levels were slow to repopulate, recovering to approximately 50% baseline by 36 months. CD4+ and CD8+ T cell subsets were at an approximate 2:1 ratio pre-transplant, yet CD8+ T cells recovered at a relatively constant 1:1 ratio with CD4+ cells in CAMPATH-treated patients (See FIG. 6b).

[2] = tested on: recipient T cells (alloreactivity to donor antigen); assay: IFN-γ kinetics assay in the 5-day CFSE-MLR of renal allograft patients; type: cell-based, human; set-up: key to IFN-γ assay: HYPO: hyporesponsive; EQL: equal response to donor and third-party antigen; HYPR: hyperresponsive to donor Ag; UN: no response to donor Ag; details: for IFN-γ assay: per patient, month 12, response to donor versus third-party antigen
Procedure: (§2) CFSE-MLR Assay. Blood was collected at 12 months post-transplant, and PBMC's purified by Ficoll gradient separation. Recipient PBMC's were labeled with 5.0 μM CFSE for 10 minutes at 37° C., upon which 1 ml of cold FCS was added to stop further staining. Cells were then washed once in complete media, and used as responder cells in an MLR in which both proliferation and kinetics of cytokine expression were measured in response to irradiated donor, third party, or autologous stimulator PBMC's. The number of class I and class II MHC mismatches between host/donor and host/third party were kept as consistent as possible with the available third parties from which to choose. A total of 2×10^5 responder and 2×10^5 stimulator cells/well were added to a 96-well round-bottom plate, in a total of 200 μl/well complete RPMI with 15% FCS. Cultures were set up in quintuplet wells such that the supernatants could be collected every 24 hours during the 5-day MLR. On day 5, T cell proliferation was measured by flow cytometry using PE-conjugated anti-CD3, CD4, and CD8 antibodies. Live cells were gated out by PI, and subsequent PE-positive cells in the lymphocyte gate were analyzed for their loss of CFSE intensity. On average, 4000 live lymphocytes were acquired for analysis using CellQuest software and a FACSCAN flow cytometer. Proliferation was analyzed using FlowJo software (Tree Star, Inc.).
Cytokine Kinetics Test. Cytokine expression levels in the MLR supernatants were measured using a multi-cytokine fluorescent bead detection system (BeadLyte, Upstate, Inc.). Fifty μl of Day 1-5 supernatants were utilized to analyze the cytokines: IL-1β, IL-2, IL-4, IL-6, IL-8, IL-10, IL-12, GM-CSF, TNF-α, and IFN-γ.
Additional information was obtained from the 5-day CFSE-MLR by collecting supernatants at 24-hour intervals and analyzing them for the expression of IFN-γ. The kinetic patterning gave a comprehensive picture of alloreactivity which could be categorized into 4 distinct groups: 1) patients who responded equally well to donor and third party antigen, 2) those who were hypo-responsive to donor, 3) those who were hyper-responsive to donor, and 4) those who were completely unresponsive to donor as opposed to third party antigen (See FIG. 4). […] Statistically, there was no bias in the hypo- (P=0.51) or hyper-responsive (P=0.73) groups using the 1-tailed Fisher's exact test. […] Therefore, the donor unresponsiveness of these 4 patients cannot simply be attributed to low T cell counts. Taken together, the present invention provides that CAMPATH-rapamycin immunotherapy promotes T cell unresponsiveness in at least a subset of renal allograft recipients.

[3] = tested on: recipient T cells (alloreactivity to donor antigen); assay: GM-CSF kinetics assay in the 5-day CFSE-MLR of renal allograft patients; type: cell-based, human; set-up: key: HYPO: hyporesponsive; EQL: equal response to donor and third-party antigen; HYPR: hyperresponsive to donor Ag; UN: no response to donor Ag; details: per patient, month 12, response to donor versus third-party antigen
Procedure: as §2, with “Cultures were set up in quintuplet wells such that the supernatants could be collected every 24 hours during the 5-day MLR.” left out, “On average, 4000 live lymphocytes were acquired for analysis using CellQuest software and a FACSCAN flow cytometer.” left out
Cytokine Kinetics Test. Cytokine expression levels in the MLR supernatants were measured using a multi-cytokine fluorescent bead detection system (BeadLyte, Upstate, Inc.). […]

[4] = tested on: kidney allograft; assay: Protocol kidney biopsy after transplantation; type: in vivo, human; details: for M12 biopsy: kidney biopsy 12 months after transplantation, per patient
Procedure: as §1
Among the 15 CAMPATH-treated recipients, 10 used a single drug (9 with Sirolimus and 1 with Tacrolimus) for their maintenance immunosuppressive therapy. […] In the control group, all 8 patients were treated with a combination of CsA, MMF and prednisone for their immunosuppressive maintenance.

[5] = tested on: peripheral blood T cells (CD3), B cells (CD20), monocytes (CD14), lymphocytes; details: renal allograft recipients, at the outset; cited from earlier work
[6] = tested on: CD3+, CD4+ and CD8+ recipient T cells; assay: CFSE-MLR proliferation assay with recipient PBMC; type: cell-based, human; details: patient UW19, response to third party antigen, 12 months
Source text: To examine the proliferative response of host T cells to donor antigen, purified responder PBMC's were labeled with CFSE. In an effort to keep the APC source constant, only PBMC's from living donors and third parties were used.
For simplicity, the loss of CFSE intensity was designated “percent proliferation” or “percent CFSE low” (e.g., even though, generally, this is a measure of the actual number of daughter cells initially involved in the response).

[7] = IFN-γ kinetics, 12 months, n=15 Campath, n=8 Control
[8] = maintenance Tacrolimus, prednisone

With “Campath: humanized monoclonal antibody that binds CD52; induction therapy followed by long-term rapamycin” the “T cell levels recovered” value ([1]; by 36 months) was “approximately 50 % baseline”, the “lymphocyte repopulation (total lymphocyte count versus pre-transplant)” value ([1]; month 12 post-transplant) was “below 50 % baseline” and the “time at which B cells recovered to baseline numbers” value ([1]; peripheral blood, 29 patients) was at most 12 months. For the same substance, the “time at which monocytes recovered to baseline numbers” value ([1]; peripheral blood, 29 patients) was at most 3 months, the “Donor-specific nonresponsiveness (number of patients)” value [2, 7] was 4 and the “Equal response (number of patients)” value [2, 7] was 1. For the same substance, the “Hyper-response (number of patients)” value [2, 7] was 2, the “Hypo-response (number of patients)” value [2, 7] was 8 and the “Hyper-response (number of patients)” value ([2]; IFN-γ kinetics, 12 months, n=15 Campath, n=8 Control, listed as CAMPATH) was “Two”. The IFN-γ assay ([2]; maintenance Sirolimus) was “HYPO (3×) and HYPR (2×) and UN (3×) and EQL”, the IFN-γ assay ([2]; maintenance Sirolimus, MMF) was “HYPO” and the IFN-γ assay ([2]; maintenance Tacrolimus) was “HYPO”. The IFN-γ assay ([2]; maintenance Tacrolimus, MMF) was “HYPO”, the IFN-γ assay ([2]; maintenance Tacrolimus, MMF, prednisone) was “HYPO” and the IFN-γ assay [2, 8] was “UN”. For the same substance, the GM-CSF assay [3] was “UN (4×) and HYPO (7×) and HYPR (2×) and EQL^a and EQL”, the M12 biopsy [4] was “normal histology” and the M12 biopsy ([4]; maintenance Sirolimus) was “Normal”. The M12 biopsy ([4]; maintenance Sirolimus, MMF) was “C4d+, humoral rejection”, the M12 biopsy ([4]; maintenance Tacrolimus) was “Normal” and the M12 biopsy ([4]; maintenance Tacrolimus, MMF) was “Normal”. For the same substance, the M12 biopsy [4, 8] was “Acute rejection Banff 1A”, the M06 biopsy ([4]; kidney biopsy at month 6, M12 biopsy declined) was “M06 Biopsy Normal Declined M12” and the “reduction in peripheral lymphocytes” value [5] was 2-3 log. The “percent proliferation of CD3+ cells” value [6] was 6.7%, the “percent proliferation of CD4+ cells” value [6] was 7.1% and the “percent proliferation of CD8+ cells” value [6] was 5.1%.
